In experiment [1] the target is IDO protease in HEK293 cell (Homo sapiens (Human), UniProt P14902). Put plainly: Inhibitory activity of IDO protease in HEK293 cell transfected with human IDO gene. The format is cell-based. Conditions: for inhibiting effect on IDO protease: result in words, tested by the above assay; for IC50: HEK293 cells transfected with pcDNA3.1(+)-hIDO, compounds incubated for 5 hr. The procedure: 2. Determination of the Inhibitory Activity of IDO Protease in HEK293 Cell
HEK293 cells were seeded in a 96-well microplate at a density of 2.5×10^4 cells/well and were maintained in DMEM (containing 10% fetal bovine serum, 50 U/mL penicillin and […] streptomycin) at 37° C. 24 hours later, HEK-293 cells were transfected with pcDNA3.1 (+)-hIDO vector carrying human IDO gene using Lipofectamine 2000. After 24 hr, the tested compounds were added to the cells and incubated for 5 hr. 140 μL of supernatant was transferred to a well in a new 96-well microplate. 10 μL of 30% (w/v) trichloroacetic acid was added to each sample-containing well and reaction was incubated at 65° C. for 15 min. The reaction mixture was centrifuged at 13000×g for 10 min. The supernatant was mixed with p-(dimethylamino)benzaldehydein acetic acid in the same volume. The yellow pigment derived from kynurenine was measured for absorbance (D) value at 480 nm using a microplate reader.
The inhibitory activity of compounds prepared in Example 1-19 against the IDO protease in HEK293 cell was determined with the above test.

In the next experiment the target is human IDO1 protease (Homo sapiens (Human), UniProt P14902). Put plainly: Inhibitory activity against human IDO1 protease (recombinant enzyme, kynurenine absorbance at 480 nm). The note with it: recombinant human IDO1, L-Tryptophan substrate, 30 min at 37° C. The format is biochemical. Here is the method: The inhibitory activity of extracorporal human IDO1 protease was tested through the following method. The inhibition effect of compounds of the present invention against the human IDO1 protease was determined through the method.
Chain of human IDO1 protease (P14902 whole entry): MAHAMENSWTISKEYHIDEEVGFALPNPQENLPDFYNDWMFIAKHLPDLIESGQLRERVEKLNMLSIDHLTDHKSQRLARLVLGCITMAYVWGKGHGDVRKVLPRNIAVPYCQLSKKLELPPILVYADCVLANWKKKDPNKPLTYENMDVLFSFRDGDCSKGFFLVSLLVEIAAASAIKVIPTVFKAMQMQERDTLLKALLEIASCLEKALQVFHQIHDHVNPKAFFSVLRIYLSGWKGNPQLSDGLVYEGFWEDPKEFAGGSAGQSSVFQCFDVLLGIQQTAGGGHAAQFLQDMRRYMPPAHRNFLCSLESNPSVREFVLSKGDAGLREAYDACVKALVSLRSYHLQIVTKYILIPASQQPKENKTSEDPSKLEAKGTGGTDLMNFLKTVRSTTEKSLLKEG
(1) Preparation of Human Recombinant IDO1 Protease
BL21 E. Coli were transformed with a correct sequences PET28a-hIDO1 vector. A single colony was inoculated in Luria-Bertani (LB) medium at 37° C. Bacterial cells were then collected through centrifugation. The cell pellets were sonicated, then centrifuged at 4° C. The supernatant was then collected and purified by Ni chromatography to give pure rhIDO1 protease.
(2) The Test of the Compounds
IDO1 enzymatic assay was carried out in a reaction mixture (500 μL/well) containing 50 mmol/L potassium phosphate buffer, 400 μg/mL catalase, 40 mmol/L ascorbic acid, 20 μmol/mL methylene blue, […] L-Tryptophan and the test compound. After the mixture was incubated for 3˜5 min at 37° C., recombinant human IDO1 was added to. The mixture was incubated for another 30 min at 37° C. and the reaction was stopped by adding 200 μL of 30% (w/v) trichloroacetic acid. After heating in a water bath pot at 65° C. for 15 min and centrifugation at 13800×g for 10 min. 100 μL of supernatant was transferred into a well of a 96-well microplate and mixed with the same volume of 2% (w/v) p-(dimethylamino)benzaldehyde in acetic acid. […]. When the color of the mixture became yellow, the mixture was measured for absorbance (D) value at 480 nm using microplate reader.
The inhibitory activity of compounds of the present invention against the human IDO1 protease was determined with the above test.

Each structure is given as a SMILES string.

Chain of IDO protease in HEK293 cell (P14902 whole entry): as above

For the molecule `N=C(Nc1ccc(F)c(Br)c1)c1nonc1NCCC1CCCC(CNS(N)(=O)=O)C1` (centres unmarked) [Compound 14], the “inhibiting effect on IDO protease” value in experiment [1] is reported as “showed the inhibiting effect”.

For the molecule `N=C(Nc1ccc(F)c(Br)c1)c1nonc1NCC1CCCC(CCNS(N)(=O)=O)C1` (centres unmarked) [Compound 15], the “inhibiting effect on IDO protease” value in experiment [1] is recorded as “showed the inhibiting effect”. `NS(=O)(=O)NCCC1CCCC(CCNc2nonc2C(=NO)Nc2ccc(F)c(Br)c2)C1` (centres unmarked) [Compound 16]: in experiment [1], the “inhibiting effect on IDO protease” value is given as “showed the inhibiting effect”.

Turning to `N=C(Nc1ccc(F)c(Br)c1)c1nonc1NC1CCC(CCNS(N)(=O)=O)C1` (centres unmarked) [Compound 17], the “inhibiting effect on IDO protease” value in experiment [1] was “showed the inhibiting effect”. For `NS(=O)(=O)NC1CCC(CNc2nonc2C(=NO)Nc2ccc(F)c(Br)c2)C1` (centres unmarked) [Compound 19], the “inhibiting effect on IDO protease” value in experiment [1] was “showed the inhibiting effect”. Broadly, the IC50 is the concentration needed to halve the response being measured. Take `NS(=O)(=O)NC[C@H]1CC[C@H](Nc2nonc2C(=NO)Nc2ccc(F)c(Br)c2)CC1` [Example 1, trans-N-(3-bromo-4-fluorophenyl)-N′-hydroxy-4-((4-((sulfamoylamino)methyl)cyclohexyl)amino)-1,2,5-oxadiazole-3-carboximidamide]: the IC50 in experiment [1] was 8 nM; at human IDO1 protease it was 16 nM. Take `NS(=O)(=O)NCC[C@H]1CC[C@H](Nc2nonc2C(=NO)Nc2ccc(F)c(Br)c2)CC1` [Example 2, trans-N-(3-bromo-4-fluorophenyl)-N′-hydroxy-4-((4-(2-(sulfamoylamino)ethyl)cyclohexyl)amino)-1,2,5-oxadiazole-3-carboximidamide]: the IC50 in experiment [1] was 36 nM; on human IDO1 protease, 46 nM. For `NS(=O)(=O)N[C@H]1CC[C@H](CNc2nonc2C(=NO)Nc2ccc(F)c(Br)c2)CC1` [Example 3, Trans-N-(3-bromo-4-fluorophenyl)-N′-hydroxy-4-(((4-(sulfamoylamino)cyclohexyl)methyl)amino)-1,2,5-oxadiazole-3-carboximidamide], the figures for the IC50 (in experiment [1]; on human IDO1 protease) were 13 nM and 38 nM, respectively.

Take `NS(=O)(=O)NC1CCC(CCNc2nonc2C(=NO)Nc2ccc(F)c(Br)c2)CC1` (centres unmarked) [Example 4, N-(3-bromo-4-fluorophenyl)-N′-hydroxy-4-((2-(4-(sulfamoylamino)cyclohexyl)ethyl)amino)-1,2,5-oxadiazole-3-carboximidamide]: the IC50 was determined as 36 nM in experiment [1] and 22 nM on human IDO1 protease.

Turning to `NS(=O)(=O)NCC1CCC(CNc2nonc2C(=NO)Nc2ccc(F)c(Br)c2)CC1` (centres unmarked) [Example 5, N-(3-bromo-4-fluorophenyl)-N′-hydroxy-4-(((4-((sulfamoylamino)methyl)cyclohexyl)methyl)amino)-1,2,5-oxadiazole-3-carboximidamide], the IC50 in experiment [1] was 14 nM; at human IDO1 protease, 45 nM. As to `NS(=O)(=O)NCC1CCC(CCNc2nonc2C(=NO)Nc2ccc(F)c(Br)c2)CC1` (centres unmarked) [Example 6, N-(3-bromo-4-fluorophenyl)-N′-hydroxy-4-((2-(4-((sulfamoylamino)methyl)cyclohexyl)ethyl)amino)-1,2,5-oxadiazole-3-carboximidamide], the IC50 in experiment [1] was 39 nM; on human IDO1 protease, 48 nM. Turning to `NS(=O)(=O)NCCC1CCC(CNc2nonc2C(=NO)Nc2ccc(F)c(Br)c2)CC1` (centres unmarked) [Example 7, N-(3-bromo-4-fluorophenyl)-N′-hydroxy-4-(((4-(2-(sulfamoylamino)ethyl)cyclohexyl)methyl)amino)-1,2,5-oxadiazole-3-carboximidamide], the IC50 is 21 nM in experiment [1] and 74 nM on human IDO1 protease.

As for `NS(=O)(=O)NCCC1CCC(CCNc2nonc2C(=NO)Nc2ccc(F)c(Br)c2)CC1` (centres unmarked) [Example 8, N-(3-bromo-4-fluorophenyl)-N′-hydroxy-4-((2-(4-(2-(sulfamoylamino)ethyl)cyclohexyl)ethyl)amino)-1,2,5-oxadiazole-3-carboximidamide], the figures for the IC50 (in experiment [1]; on human IDO1 protease) were 45 nM and 51 nM, respectively. The matching figures for `NS(=O)(=O)NCC1CCCC(Nc2nonc2C(=NO)Nc2ccc(F)c(Br)c2)C1` (centres unmarked) [Example 9, N-(3-bromo-4-fluorophenyl)-N′-hydroxy-4-((3-((sulfamoylamino)methyl)cyclohexyl)amino)-1,2,5-oxadiazole-3-carboximidamide]: 27 nM and 64 nM. In the case of `NS(=O)(=O)NCCC1CCCC(Nc2nonc2C(=NO)Nc2ccc(F)c(Br)c2)C1` (centres unmarked) [Example 10, N-(3-bromo-4-fluorophenyl)-N′-hydroxy-4-((3-(2-(sulfamoylamino)ethyl)cyclohexyl)amino)-1,2,5-oxadiazole-3-carboximidamide], the IC50 in experiment [1] came to 52 nM; on human IDO1 protease, 59 nM.

`NS(=O)(=O)NC1CCCC(CNc2nonc2C(=NO)Nc2ccc(F)c(Br)c2)C1` (centres unmarked) [Example 11, N-(3-bromo-4-fluorophenyl)-N′-hydroxy-4-(((3-(sulfamoylamino)cyclohexyl)methyl)amino)-1,2,5-oxadiazole-3-carboximidamide]: the IC50 amounted to 18 nM in experiment [1] and 43 nM on human IDO1 protease. For the molecule `NS(=O)(=O)NC1CCCC(CCNc2nonc2C(=NO)Nc2ccc(F)c(Br)c2)C1` (centres unmarked) [Example 12, N-(3-bromo-4-fluorophenyl)-N′-hydroxy-4-((2-(3-(sulfamoylamino)cyclohexyl)ethyl)amino)-1,2,5-oxadiazole-3-carboximidamide], the IC50 in experiment [1] was found to be 23 nM; on human IDO1 protease it was 60 nM. The matching figures for `NS(=O)(=O)NCC1CCC(Nc2nonc2C(=NO)Nc2ccc(F)c(Br)c2)C1` (centres unmarked) [Example 14, N-(3-bromo-4-fluorophenyl)-N′-hydroxy-4-((3-((sulfamoylamino)methyl)cyclopentyl)amino)-1,2,5-oxadiazole-3-carboximidamide]: 48 nM and 108 nM. Take `NS(=O)(=O)NC1CCN(Nc2nonc2C(=NO)Nc2ccc(F)c(Br)c2)CC1` [Example 15, N-(3-bromo-4-fluorophenyl)-N′-hydroxy-4-((4-(sulfamoylamino)piperidin-1-yl)amino)-1,2,5-oxadiazole-3-carboximidamide]: the IC50 in experiment [1] was 37 nM; at human IDO1 protease, 83 nM. The matching figures for `NS(=O)(=O)NC1CCC(Nc2nonc2C(=NO)Nc2ccc(F)c(Br)c2)C1` (centres unmarked) [Example 16]: 42 nM and 63 nM. Take `NS(=O)(=O)NC1CCC(Nc2nonc2/C(=N/O)Nc2ccc(F)c(Br)c2)CC1` (centres unmarked) [Example 17, N-(3-bromo-4-fluorophenyl)-N′-hydroxy-4-((4-(sulfamoylamino)cyclohexyl)amino)-1,2,5-oxadiazole-3-carboximidamide]: the IC50 in experiment [1] was 10 nM; on human IDO1 protease, 15 nM. The matching figures for `NS(=O)(=O)N[C@H]1CC[C@H](Nc2nonc2C(=NO)Nc2ccc(F)c(Br)c2)CC1` [Example 18, trans-N-(3-bromo-4-fluorophenyl)-N′-hydroxy-4-(((1r,4r)-4-(sulfamoylamino)yclohexyl)amino)-1,2,5-oxadiazole-3-carboximidamide]: 3 nM and 6 nM.

With `NS(=O)(=O)N[C@H]1CC[C@@H](Nc2nonc2C(=NO)Nc2ccc(F)c(Br)c2)CC1` [Example 19, cis-N-(3-bromo-4-fluorophenyl)-N′-hydroxy-4-(((1s,4s)-4-(sulfamoylamino)cyclohexyl)amino)-1,2,5-oxadiazole-3-carboximidamide], the results for the IC50 (in experiment [1]; at human IDO1 protease) were 5 nM and 12 nM, respectively.

The record behind these values is patent US10981882B1, “Compound for inhibiting IDO, a manufacturing method and a use thereof” (Shanghai JOYU Pharmatech Ltd., priority 2017, dated 2021).
